Test results published in the OligoGym collection.
After the bases stand the sugars from the 5' end (letter, count) and the backbone: PS all phosphorothioate, else s phosphorothioate and o phosphodiester by linkage. Methylation of C is not given here. e = 2'-O-(2-methoxyethyl) (MOE); k = constrained ethyl (cEt); d = 2'-deoxy (DNA); m = 2'-O-methyl

Assays:
IRF4 = settings: ASO
HSD17B13 = settings: ASO, HepaRG

Sequence | target mRNA inhibition (HSD17B13; 1 µM) | also measured
AAAAAAGGTGCAAGCC (sugars k3 d10 k3, PS) | – | target mRNA inhibition (IRF4; SK-MEL-28, 4 µM): 7%
AAAAACTTGGGTCACT (sugars k3 d10 k3, PS) | – | target mRNA inhibition (IRF4; SK-MEL-28, 4 µM): -19%
AAAAAGGTGCAAGCCT (sugars k3 d10 k3, PS) | – | target mRNA inhibition (IRF4; MM.1R, 1 µM): 6%
AAAAATGTCCCATCCA (sugars k3 d10 k3, PS) | – | target mRNA inhibition (IRF4; SK-MEL-28, 4 µM): 30%
AAAACAGTAAGAGGGC (sugars k3 d10 k3, PS) | – | target mRNA inhibition (IRF4; SK-MEL-28, 4 µM): 39%
AAAAGAGCCGCCACAT (sugars k3 d10 k3, PS) | – | target mRNA inhibition (IRF4; SK-MEL-28, 4 µM): 16%
AAACACCTCAGCTGAC (sugars k3 d10 k3, PS) | – | target mRNA inhibition (IRF4; SK-MEL-28, 4 µM): 16%
AAACAGCCGCCGGCAC (sugars k3 d10 k3, PS) | – | target mRNA inhibition (IRF4; SK-MEL-28, 4 µM): 11%
AAACAGTGCCCAAGCC (sugars k3 d10 k3, PS) | – | target mRNA inhibition (IRF4; SK-MEL-28, 4 µM): 25%
AAACATCCAAAGGGTT (sugars k3 d10 k3, PS) | – | target mRNA inhibition (IRF4; MM.1R, 1 µM): -1%
AAAGAAGCAAGTCGGT (sugars k3 d10 k3, PS) | – | target mRNA inhibition (IRF4; MM.1R, 1 µM): -2%
AAAGAATGGCGCATAG (sugars k3 d10 k3, PS) | – | target mRNA inhibition (IRF4; MM.1R, 1 µM): 10%
AAAGATGCCAGAGGGC (sugars k3 d10 k3, PS) | – | target mRNA inhibition (IRF4; SK-MEL-28, 4 µM): 23%
AAAGCATAGAGTCACC (sugars k3 d10 k3, PS) | – | target mRNA inhibition (IRF4; SK-MEL-28, 4 µM): 34%
AAAGGAGGTAGTGGCC (sugars k3 d10 k3, PS) | – | target mRNA inhibition (IRF4; SK-MEL-28, 4 µM): 21%
AAAGGCCAAATTGCAA (sugars k3 d10 k3, PS) | – | target mRNA inhibition (IRF4; SK-MEL-28, 4 µM): 52%
AAATAGCATCAGAGCT (sugars k3 d10 k3, PS) | – | target mRNA inhibition (IRF4; SK-MEL-28, 4 µM): 13%
AACAGATAGTTAAGTA (sugars k3 d10 k3, PS) | – | target mRNA inhibition (IRF4; SK-MEL-28, 4 µM): 19%
AACCAAGAAATGCACC (sugars k3 d10 k3, PS) | – | target mRNA inhibition (IRF4; SK-MEL-28, 4 µM): 33%
AACCACAAGCAGTGAT (sugars k3 d10 k3, PS) | – | target mRNA inhibition (IRF4; SK-MEL-28, 4 µM): 17%
TGTGAGAGGATAGTGA (sugars k3 d10 k3, PS) | 50% | –
TGTGCACTCATTCTGT (sugars k3 d10 k3, PS) | 18% | –
TGTGGCATGGCTACAG (sugars k3 d1 m1 d8 k3, PS) | 5% | –
TGTGGCATGGCTACAG (sugars kkdddddddddkekek, PS) | 22% | –
TGTGTTAGCTTTAATT (sugars k3 d10 k3, PS) | 38% | –
TGTGTTCTTGTTGATA (sugars kkdddddddddkekek, PS) | 64% | –

Sequence | target mRNA inhibition (HSD17B13; 1 µM) | also measured
TGTTAAGCAGATGGCT (sugars k3 d10 k3, PS) | 39% | –
TGTTAGCTAAGGGAGA (sugars k3 d10 k3, PS) | 0% | –
TGTTGATATTCTGTGG (sugars k3 d1 m1 d8 k3, PS) | 48% | –
TGTTGATATTCTGTGG (sugars k3 d9 k3 e1, PS) | 64% | –
TTAAAATAGAGTCGGT (sugars k3 d1 m1 d8 k3, PS) | 70% | –
TTAAAATAGAGTCGGT (sugars k3 d10 k3, PS) | 65% | –
TTAAAATAGAGTCGGT (sugars kkdddddddddkekek, PS) | 51% | –
TTAAACCTTCCCTGTG (sugars k3 d1 m1 d8 k3, PS) | 23% | –
TTAAACCTTCCCTGTG (sugars k3 d10 k3, PS) | 22% | –
TTAAATCAGGCAGTCA (sugars k3 d10 k3, PS) | 45% | –
TTAAGATACCCAGGTT (sugars k3 d10 k3, PS) | 37% | –
TTAAGCAGATGGCTTA (sugars k3 d10 k3, PS) | 0% | –
TTAAGTACTGTGAGAC (sugars k3 d10 k3, PS) | 35% | –
TTAATGCCACCCTACC (sugars k3 d10 k3, PS) | 19% | –
TTACAGCCTTAGAGTG (sugars k3 d10 k3, PS) | 21% | –
TTACATCACCCACTTC (sugars k3 d10 k3, PS) | 37% | –
TTACGACTTCATCTGT (sugars k3 d10 k3, PS) | 36% | –
TTAGCAAGCTAAGAGA (sugars k3 d10 k3, PS) | 42% | –
TTAGCTGTGCACTCAT (sugars k3 d10 k3, PS) | 61% | –
TTAGGAAAGCTCATGG (sugars k3 d10 k3, PS) | 26% | –
TTAGTATAGTTATCTT (sugars kkdddddddddkekek, PS) | 33% | –
TTAGTCTTGATGTAGT (sugars k3 d9 k3 e1, PS) | 61% | –
TTAGTCTTGATGTAGT (sugars kkdddddddddkekek, PS) | 36% | –
TTAGTTAGAATAGTCT (sugars kkdddddddddkekek, PS) | 53% | –
TTAGTTGGTAGCTTGC (sugars k3 d10 k3, PS) | 72% | –
TTAGUATAGTTATCTT (sugars k3 d1 m1 d8 k3, PS) | 22% | –

Sequence | target mRNA inhibition (HSD17B13; 1 µM) | also measured
TTAGUCTTGATGTAGT (sugars k3 d1 m1 d8 k3, PS) | 50% | –
TTATAACTACAAGAGG (sugars k3 d10 k3, PS) | 68% | target mRNA inhibition (HSD17B13; 0.02 µM): 1%; target mRNA inhibition (HSD17B13; 0.078 µM): 25%; target mRNA inhibition (HSD17B13; 0.313 µM): 26%; target mRNA inhibition (HSD17B13; 1.25 µM): 60%; target mRNA inhibition (HSD17B13; 5 µM): 82%
TTATACTGAAGGCTGT (sugars k3 d10 k3, PS) | 23% | –
TTATGTAATAGCCAGT (sugars k3 d10 k3, PS) | 77% | target mRNA inhibition (HSD17B13; 0.02 µM): 16%; target mRNA inhibition (HSD17B13; 0.078 µM): 21%; target mRNA inhibition (HSD17B13; 0.313 µM): 59%; target mRNA inhibition (HSD17B13; 1.25 µM): 78%; target mRNA inhibition (HSD17B13; 5 µM): 89%
TTATGTGATTGAGTTC (sugars k3 d9 k3 e1, PS) | 30% | –
TTATTATGTGATTGAG (sugars k3 d10 k3, PS) | 23% | –
TTATTGGTATGGTAAG (sugars k3 d10 k3, PS) | 14% | –
TTCACCTGATTTAGAG (sugars k3 d10 k3, PS) | 9% | –
TTCAGAGTTATACAGA (sugars k3 d10 k3, PS) | 66% | –
TTCCATAAAGCTGGAT (sugars k3 d10 k3, PS) | 5% | –
TTCCGAAAAAAGTGGA (sugars k3 d10 k3, PS) | 13% | –
TTCCGGTAAGAATTTC (sugars k3 d10 k3, PS) | 33% | –
TTCGAATCATTAAGCT (sugars k3 d10 k3, PS) | 63% | –
TTCTAAATTACTCCGT (sugars k3 d10 k3, PS) | 53% | –
TTCTACACCACACTAA (sugars k3 d10 k3, PS) | 12% | –
TTCTAGGATGATGTTC (sugars k3 d10 k3, PS) | 72% | –
TTCTATCAACCTGCAC (sugars k3 d10 k3, PS) | 62% | –
TTCTATTGTATGAGGT (sugars k3 d10 k3, PS) | 0% | –
TTCTCTTGACAATGGT (sugars k3 d10 k3, PS) | 67% | –
TTCTTGCAGAAATTCA (sugars k3 d10 k3, PS) | 42% | –
TTGAACAGTCTTAAAC (sugars k3 d9 k3 e1, PS) | 35% | –
TTGAAGACAATACAGG (sugars k3 d10 k3, PS) | 63% | –
TTGAATAGCAAGCCAA (sugars k3 d10 k3, PS) | 31% | –
TTGACTGCTGCTAGTG (sugars kkdddddddddkekek, PS) | 29% | –
TTGATAAAATAGGGTG (sugars k3 d10 k3, PS) | 46% | –
TTGCACCGTTTTGGGC (sugars k3 d1 m1 d8 k3, PS) | 50% | –

Sequence | target mRNA inhibition (HSD17B13; 1 µM) | also measured
TTGCACCGTTTTGGGC (sugars kkdddddddddkekek, PS) | 26% | –
TTGCAGTTATTAGAAG (sugars k3 d1 m1 d8 k3, PS) | 17% | –
TTGCATAAGAGCCAAA (sugars k3 d10 k3, PS) | 46% | –
TTGGAATGCTACTTGA (sugars k3 d1 m1 d8 k3, PS) | 65% | –
TTGGCCGAGGAGGGCG (sugars k3 d10 k3, PS) | 3% | –
TTGGGACCAATATAAT (sugars k3 d10 k3, PS) | 18% | –
TTGGGTCCATTGTTTC (sugars k3 d10 k3, PS) | 44% | –
TTGGTATGGTAAGCCC (sugars k3 d10 k3, PS) | 62% | –
TTGGUAAGTATTCCAT (sugars k3 d1 m1 d8 k3, PS) | 13% | –
TTGTTAGAGTGCTTAG (sugars k3 d10 k3, PS) | 76% | –
TTGTTGATATTCTGTG (sugars k3 d10 k3, PS) | 52% | –
TTTAAGAGGCATGAAA (sugars k3 d10 k3, PS) | 40% | –
TTTAGGGAGGTAGCTT (sugars k3 d10 k3, PS) | 24% | –
TTTATAGACTGGGTAG (sugars k3 d10 k3, PS) | 59% | –
TTTATTATGAGGATCT (sugars k3 d10 k3, PS) | 43% | –
TTTATTGGTATGGTAA (sugars k3 d10 k3, PS) | 25% | –
TTTCACCTCAGGTGAC (sugars k3 d10 k3, PS) | 52% | –
TTTCATGGCCTTACCA (sugars k3 d10 k3, PS) | 52% | –
TTTCCTCCACACCGCG (sugars k3 d10 k3, PS) | 18% | –
TTTCGAATCATTAAGC (sugars k3 d10 k3, PS) | 30% | –
TTTCGGCACTCAGCTG (sugars k3 d10 k3, PS) | 29% | –
TTTCTAAATTACTCCG (sugars k3 d10 k3, PS) | 54% | –
TTTGAGAGAACTTATA (sugars k3 d10 k3, PS) | 0% | –
TTTGCAGCATTGATTC (sugars k3 d10 k3, PS) | 53% | –
TTTGGTGGACTTCAGA (sugars k3 d10 k3, PS) | 16% | –
TTTGTTAGAGTGCTTA (sugars k3 d10 k3, PS) | 80% | target mRNA inhibition (HSD17B13; 0.02 µM): 12%; target mRNA inhibition (HSD17B13; 0.078 µM): 30%; target mRNA inhibition (HSD17B13; 0.313 µM): 56%; target mRNA inhibition (HSD17B13; 1.25 µM): 86%; target mRNA inhibition (HSD17B13; 5 µM): 89%
